Test results as given in the NIST ThermoML archive (doi:10.1016/j.tca.2009.12.017).
Numbers after ± are expanded uncertainties.

Conditions: Crystal; Boetius hot stage apparatus

Normal melting temperature: -11 ± 6 °C
Structure (SMILES): CNC(=O)[C@H](Cc1cnc[nH]1)NC(C)=O [N-acetyl-N'-methyl-L-alpha-histidinamide]
